The results in this text go back to patent US12151019B2, “Compositions for blood storage and transfusions” (Albert Einstein College of Medicine, priority 2020, dated 2024).

The series in a line: Loading potential / solubility in PEG400/myristic acid vehicles and in water. In kind it is physicochemical. The settings on record: for dissolved material in aqueous solution: aqueous sample compared with Sample 3. The protocol: Vehicles for loading the active ingredient were prepared as illustrated in samples 1-4. Myristic acid (solid flakes) was dissolved in PEG400 upon warming the mixture in a warm water bath. Shaking accelerated the formation of the resulting clear solution. The following four concentrations of myristic acid (MA) in PEG400 were prepared and evaluated. Samples 1, 2, 3 and 4 were all clear solutions when the samples were allowed to attain ambient temperatures. • a. 30 ml of PEG400+1.5 grams of MA (Sample 1) • b. 30 ml of PEG400+3 grams of MA (Sample 2) • c. 30 ml of PEG400+0.75 grams of MA (Sample 3) • d. 30 ml of PEG400+2.25 grams of MA (Sample 4)
The samples as vehicles were loaded with NO enhancing agent. […] Samples 1 and 2 were initially liquid but formed a solid uniform gel over a period of several hours. Sample 3 was prepared by dissolving 0.75 grams of MA in 30 ml's of PEG400 and heating in a water bath (˜60-80 C) for ˜15 minutes. Sample 4 was prepared by dissolving 2.25 grams of MA in 30 mls of PEG400 and heating in a water bath (˜60-80 C) for ˜15 minutes. Both sample 3 and sample 4 were uniform solutions when the heating cycle was finished. Upon cooling sample 3 remained liquid whereas sample 4 formed a uniform gel.
The addition of water to the PEG400/MA based formulation can create a nonuniform emulsion that poses difficulties for topical use.
The Sample 3 solvent system was also tested as a vehicle for loading potential with the following low solubility reagents using the above method: quercetin, berberine, N-acetyl cysteine amide (NACA) and N-acetyl cysteine ethyl ester (NAC-ethylester).

Turning to `COc1ccc2cc3[n+](cc2c1OC)CCc1cc2c(cc1-3)OCO2` [berberine], the “dissolved material in aqueous solution” value is reported as “minimal dissolved material”.
`O=c1c(O)c(-c2ccc(O)c(O)c2)oc2cc(O)cc(O)c12` [quercetin]: the “dissolved material in aqueous solution” value is “minimal dissolved material”. Further, under “either sample 3 or sample 4 vehicle”, the “solubility of quercetin in sample 3 or sample 4” value is recorded as 200-300 mg quercetin in 30 ml.
`COc1cc(/C=C/C(=O)CC(=O)/C=C/c2ccc(O)c(OC)c2)ccc1O` [Curcumin 95]: the “dissolving of added curcumin in PEG400/myristic acid” value (1.5 grams of Curcumin 95 added to Samples 1, 2, 3 (30 ml PEG400 + MA), warmed, shaken, cooled to ambient) is recorded as “dissolving of almost all of the added curcumin”.
